From article PMC5640644, “HDX reveals the conformational dynamics of DNA sequence specific VDR co-activator interactions” (Nature Communications, 2017)

Legend:
[1] = system: BGLAP; assay: BGLAP gene activation assay (BGLAP mRNA, QuantiGene 2.0) in MG-63 cells; format: cell-based, human
Description: Human osteosarcoma cells MG-63, (CRL-1427, American Type Culture Collection (ATCC), Manassas, VA), were maintained in EMEM (ATCC 30–2003) + 10% FBS in 5% CO2. For bone gamma-carboxyglutamate protein (BGLAP) expression analysis MG-63 cells, suspended in EMEM (ATCC 30–2003) + 5% charcoal dextran treated FBS, were seeded onto 96-well tissue culture treated plates at 25,000 cells per well. After an overnight incubation the medium was removed and serial dilutions of VDRMs in concentrations ranging from 10 μM to 2 nM in EMEM (ATCC 30–2003) + 5% charcoal dextran treated FBS were added. Following a 24 h incubation the medium was removed and the plates were sealed and stored at −80 °C for later processing. QuantiGene 2.0 Assay Kit (Affymetrix QS0009) was used to quantitate BGLAP and the Housekeeping gene […] mRNA levels. Following the kit instructions, lysis buffer was added to the frozen cells and incubated briefly at 55 °C. A volume of 20 μl of BGLAP probeset (Affymetrix SA-10875-01) or 18 S (Affymetrix SA-10026) in blocking buffer was added to the provided capture plates before adding 80 μl of the cell lysate. The plates were sealed and incubated at 55 °C overnight. Following an overnight incubation the capture plates were washed and the probes amplified following kit instructions. The resulting luminescence signal was detected on an Envision (Perkin Elmer). BGLAP signal was normalized using the 18S signal and the resulting data was fit to a 4-parameter logistics to determine EC50.

[2] = system: TRPV6; assay: TRPV6 gene activation assay (TRPV6 mRNA, QuantiGene 2.0) in differentiated C2BBe1 cells; format: cell-based, human
Description: C2BBe1 (a clone of CaCO2) cells (CRL-2101, American Type Culture Collection, Manassas, VA) were maintained in DMEM (ATCC 30-2002) supplemented with 10% FBS and insulin-transferrin-selenium-G supplement (Invitrogen, Carlsbad, CA). For TRPV6 expression analysis, cells were plated in 96-well tissue culture treated plates (40,000 per well) in differentiation medium (DMEM containing 5% charcoal-stripped FBS and insulin-transferrin-sodium selenite supplement (ITS)). Cells were allowed to differentiate for 6 days with medium replacement every other day before compound treatment. The medium was removed, and serial dilutions of 1,25D3 or VDRMs in concentrations ranging from 10 μM to 2 nM in differentiation medium were added. After 24 h, the medium was removed, and cell plates were sealed and frozen at −80 °C until assayed. QuantiGene 2.0 Assay Kit (Affymetrix QS0009) was used to quantitate TRPV6 and housekeeping gene GUSB mRNA levels. Following the kit instructions, lysis buffer was added to the frozen cells and incubated briefly at 55 °C […]. Following an overnight incubation the capture plates were washed and the probes amplified following kit instructions. The resulting luminescence signal was detected on an Envision plate reader (Perkin Elmer). TRPV6 signal was normalized using the GUSB signal and the resulting data was fit to a 4-parameter logistic to determine EC50 values.

[3] = target: T1, WT Flag-h RXRα (human, UniProt P19793 1-462); assay: native gel or EMSA; VDR and RXRα mixed at 1:1 molar ratio (about 10 μM); 6% DNA Retardation gel, 0.5X TBE, 150 V, room temperature; ethidium bromide and coomassie staining; details: both partners purified
T1 construct: human retinoid X receptor alpha (RXRα), full length; also called retinoid X receptor α; source: baculovirus system, purified (Flag, SEC)
T1 sequence (looked up): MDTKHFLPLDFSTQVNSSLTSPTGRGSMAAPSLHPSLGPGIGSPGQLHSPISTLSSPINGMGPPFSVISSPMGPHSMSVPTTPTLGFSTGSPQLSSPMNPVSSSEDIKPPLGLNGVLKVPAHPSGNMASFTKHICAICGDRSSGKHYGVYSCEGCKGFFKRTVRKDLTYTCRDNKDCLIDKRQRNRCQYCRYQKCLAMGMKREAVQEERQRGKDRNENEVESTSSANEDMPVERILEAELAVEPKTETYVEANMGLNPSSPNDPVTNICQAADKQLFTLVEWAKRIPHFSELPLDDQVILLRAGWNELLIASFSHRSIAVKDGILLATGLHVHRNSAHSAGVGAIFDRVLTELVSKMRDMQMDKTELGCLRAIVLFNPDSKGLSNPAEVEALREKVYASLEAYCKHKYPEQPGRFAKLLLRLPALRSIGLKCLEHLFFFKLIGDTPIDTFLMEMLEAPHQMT

C=C1/C(=C\C=C2/CCC[C@]3(C)[C@@H]([C@H](C)CCCC(C)(C)O)CC[C@@H]23)C[C@@H](O)C[C@@H]1O [1,25D3, 1α,25-dihydroxyvitamin D3, reference compound] was tested, and the EC50 ([1]; Homo sapiens, MG-63, 24 h, read-out: EC50, BGLAP activation) was 4.1 nM, the “Max. Stim., BGLAP activation” value ([1]; MG-63 cells, fold change over DMSO normalized to 1,25D3 = 100%) was 100% and the “Max. Stim., TRPV6 activation” value ([2]; C2BBe1 cells, fold change over DMSO normalized to 1,25D3 = 100%) was 100%. The EC50 ([2]; Homo sapiens, C2BBe1 cells differentiated 6 days, 24 h, average of replicate runs) was 9.81 nM.

B1: Full-length WT His-hVDR (Δ (151–190)) (receptor, human, UniProt P11473 1-427, looked up)
chain: MEAMAASTSLPDPGDFDRNVPRICGVCGDRATGFHFNAMTCEGCKGFFRRSMKRKALFTCPFNGDCRITKDNRRHCQACRLKRCVDIGMMKEFILTDEEVQRKREMILKRKEEEALKDSLRPKLSEEQQRIIAILLDAHHKTYDPTYSDFITSSDMMDSSSFSNLDLSEEDSDDPSVTLELSQLSMLPHLADLVSYSIQKVIGFAKMIPGFRDLTSEDQIVLLKSSAIEVIMLRSNESFTMDDMSWTCGNQDYKYRVSDVTKAGHSLELIEPLIKFQVGLKKLNLHEEEHVLLMAICIVSPDRPGVQDAALIEAIQDRLSNTLQTYIRCRHPPPGSHLLYAKMIQKLADLRSLNEEHSKQYRCLSFQPECSMKLTPLVLEVFGNEIS
notes: human vitamin D receptor (VDR), full length with residues 151-190 deleted; also called vitamin D receptor; source: baculovirus system, purified (Ni-NTA, SEC)
B1: binds [3].
